Earlier results as cited in patent US5703067A, “Inhibitors of farnesyl-protein transferase” (Merck & Co., Inc., priority 1995, dated 1997).

Test system: farnesyl-protein transferase
Conditions: via HMG-CoA reductase inhibition, literature

| SMILES | Indirect inhibition of farnesyl-protein transferase in vivo |
| --- | --- |
| CC[C@H](C)C(=O)O[C@H]1CCC=C2C=C[C@H](C)[C@H](CC[C@@H]3C[C@@H](O)CC(=O)O3)[C@H]21 [compactin] | Indirect inhibition of farnesyl-protein transferase in vivo has been demonstrated |
| CC[C@H](C)C(=O)O[C@H]1C[C@@H](C)C=C2C=C[C@H](C)[C@H](CC[C@@H]3C[C@@H](O)CC(=O)O3)[C@H]21 [lovastatin] | Indirect inhibition of farnesyl-protein transferase in vivo has been demonstrated |
